Test results as given in patent publication US8058243B2, “Method for treating a brain cancer with ifenprodil” (HSC Research and Development Limited Partnership, priority 2006, dated 2011).
Structures can show the parent of a compound that is named as a salt. Where two headings read alike, the source gives them in different places.

Tested on: murine neural precursor cells (neurosphere cultures)
Assay: HTS of LOPAC library against secondary neurosphere cultures, MTT proliferation assay at 3 μM, day 7 (z score, P value)
Assay type: cell-based, mouse
[1] = LOPAC library screen, 3 μM, MTT, neurosphere cultures
[2] = LOPAC primary screen, neurosphere MTT proliferation, 3 μM, day 7
[3] = yes/no: significantly inhibited neurosphere proliferation (P<0.01) in primary screen
[4] = primary LOPAC screen, 3 μM, MTT, neurosphere proliferation
[5] = yes/no: significantly inhibited neurosphere proliferation in the primary screen
[6] = yes = significantly inhibited neurosphere proliferation (P<0.01) in the primary screen
[7] = LOPAC library screen, 3 μM, MTT, secondary neurosphere cultures, day 7
[8] = yes/no: significantly inhibited neurosphere proliferation in primary screen
[9] = LOPAC screen, neurosphere MTT proliferation, 3 μM, day 7
[10] = yes/no: significantly inhibited neurosphere proliferation (P<0.01) in the primary screen
[11] = LOPAC library screen at 3 μM, secondary neurosphere cultures, MTT

`N[C@H](CCC(=O)NCS(=O)(=O)O)C(=O)O` [gamma-D-Glutamylaminomethylsulfonic acid] was tested, and the “Z Score” value [1] was −0.04649, the Z score [2] was −0.046 and the Activity [3] was “no”.
In the case of `CNC(=O)[C@H]1O[C@@H](n2cnc3c(NCc4ccc(N)cc4)ncnc32)[C@H](O)[C@@H]1O` [AB-MECA], the “Z Score” value is reported as 0.7604, the Z score [4] is reported as 0.760 and the Activity [5] is reported as “no”.
With `CN1Cc2c(N)cccc2C(c2ccccc2)C1` (stereo not shown) [Nomifensine maleate] the “Z Score” value [1] was 0.6693, the Z score [2] was 0.669 and the Activity [6] was “no”.
`NNCCc1ccccc1` [Phenelzine sulfate] was tested, and the “Z Score” value [7] was −1.536, the Z score [2] was −1.536 and the Activity [8] was “no”.
For `CC[C@@H]1/C=C/C=C/C[C@H](C)[C@H](O)[C@](C)(O)C(=O)[C@H](C)[C@@H](O)[C@H](C)C(=O)[C@H](C)[C@@H](O)[C@H](C)/C=C/C(=O)O[C@H]2[C@@H](C)[C@@H](CC1)O[C@@]1(CC[C@@H](C)[C@@H](C[C@H](C)O)O1)[C@@H]2C` [Oligomycin A], the “Z Score” value [7] was −9.731, the Z score [2] was −9.731 and the Activity [6] was “yes”.
With m-Iodobenzylguanidine hemisulfate the Activity was “yes”, the “Z Score” value was −2.564 and the Z score was −2.564.
`O=C(CCNNC(=O)c1ccncc1)NCc1ccccc1` [Nialamide] was tested, and the “Z Score” value [1] was −0.02937, the Z score [2] was −0.029 and the Activity [6] was “no”.
With `NC(=O)c1ncn([C@@H]2O[C@H](CO)[C@@H](O)[C@H]2O)c1O` [Mizorbine] the Z score [2] was 1.642 and the Activity [6] was “no”.
With `NC(CCCCCP(=O)(O)O)C(=O)O` (racemic) [(±)-2-Amino-7-phospheneheptanoic acid] the Z score [4] was −1.020 and the Activity [5] was “no”.
With MDL 26,630 trihydrochloride the “Z Score” value was 0.3274, the Z score [2] was 0.327 and the Activity [6] was “no”.
In the case of `CC(C)(C)NCC(O)COc1cccc2[nH]c(=O)[nH]c12.Cl` (stereo not shown) [(B1)-CGP-12177A hydrochloride], the “Z Score” value is reported as −1.611.
`O=c1c2ccccc2[nH]c(=S)n1CCN1CCC(=C(c2ccc(F)cc2)c2ccc(F)cc2)CC1` [Diacylglycerol Kinase Inhibitor II] was tested, and the “Z Score” value [7] was −1.39, the Z score [9] was −1.390 and the Activity [3] was “no”.
In the case of `CC1=NS(=O)(=O)c2cc(Cl)ccc2N1` [Diazoxide], the “Z Score” value [1] is reported as 0.04511, the Z score [9] is reported as 0.045 and the Activity [3] is reported as “no”.
With `CC1=C(C(=O)O)N2C(=O)[C@@H](NC(=O)[C@H](N)C3=CCC=CC3)[C@H]2SC1` [Cephradine] the “Z Score” value [1] was 0.7112, the Z score [2] was 0.711 and the Activity [10] was “no”.
`O=C1OC(=O)[C@H]2[C@@H]1[C@@H]1CC[C@H]2O1` [Norcantharidin] was tested, and the “Z Score” value was −1.251, the Z score [2] was −1.251 and the Activity [6] was “no”.
With `CCCCCCCCCCCCCCCC(=O)NCC(COP(=O)([O-])OCC[N+](C)(C)C)OCC` (racemic) [rac-2-Ethoxy-3-hexadecanamido-1-propylphosphocholine] the “Z Score” value (168 h, 3 µM) was −1.269, the Z score (168 h, 3 µM) was −1.269 and the Activity [3] was “no”.
For `COc1cc(Cc2cnc(N)nc2N)cc(OC)c1OC` [Trimethoprim], the “Z Score” value [7] was −1.23, the Z score [4] was −1.230 and the Activity [5] was “no”.
`CN(C)CCN(Cc1cccs1)c1ccccn1` [Methapyrilene hydrochloride] was tested, and the “Z Score” value [1] was 0.6276 and the Z score [2] was 0.628.
With `N[C@@H]1C[C@H]1c1ccccc1` [Tranylcypromine hydrochloride] the “Z Score” value [7] was −1.441, the Z score [2] was −1.441 and the Activity [8] was “no”.
With `C1COC(NC(C2CC2)C2CC2)=N1` [Rilmenidine hemifumarate] the “Z Score” value [1] was 0.5264, the Z score [2] was 0.526 and the Activity [8] was “no”.
In the case of `C1CCc2nnnn2CC1` [Pentylenetetrazole], the “Z Score” value [11] is reported as −0.9274, the Z score [2] is reported as −0.927 and the Activity [6] is reported as “no”.
In the case of `O=[N+]([O-])c1cc(O)c(O)c([N+](=O)[O-])c1` [3,5-Dinitrocatechol], the “Z Score” value is reported as −0.5294, the Z score [9] is reported as −0.529 and the Activity [3] is reported as “no”.
With `O=C(O)c1cc2cc(Cc3cccnc3)ccc2o1` [Furegrelate sodium] the “Z Score” value [1] was 0.3638, the Z score [2] was 0.364 and the Activity [3] was “no”.
With `CC(C)C[C@H](N)CSSC[C@@H](N)CC(C)C.Cl.Cl` [L-Leucinethiol, oxidized dihydrochloride] the “Z Score” value was −0.584, the Z score [2] was −0.584 and the Activity [3] was “no”.
For `CN(C)C(=O)Oc1ccc[n+](C)c1` [Pyridostigmine bromide], the “Z Score” value was 0.2311, the Z score [2] was 0.231 and the Activity [8] was “no”.
In the case of `CCCCc1ccc(C(=O)O)nc1` [Fusaric acid], the “Z Score” value is reported as −0.1413 and the Z score [2] is reported as −0.141.
In the case of `CC1CN(S(=O)(=O)c2cccc3cnccc23)CCN1.Cl.Cl` [L-701,324], the “Z Score” value is reported as 0.4513 and the Z score [2] is reported as 0.451.
`COc1ccc2[nH]c3c(c2c1)CCNC3` was tested, and the Z score [2] was −2.661 and the Activity [6] was “yes”.
In the case of `C#CC(N)CCC(=O)O` (stereo not shown) [gamma-Acetylinic GABA], the “Z Score” value is reported as 1.285, the Z score [4] is reported as 1.285 and the Activity [5] is reported as “no”.
For `CN1C[C@H](C(=O)N[C@]2(C)O[C@@]3(O)[C@@H]4CCCN4C(=O)[C@H](Cc4ccccc4)N3C2=O)C[C@@H]2c3cccc4[nH]cc(c34)C[C@H]21` [Dihydroergotamine methanesulfonate], the “Z Score” value [11] was −0.7795, the Z score [9] was −0.779 and the Activity [3] was “no”.
For `NC1(C(=O)O)CCC(C(=O)O)C1` (stereo not drawn) [trans-(B1)-ACPD], the “Z Score” value was 0.3149.
With `C=CC[C@H](N)C(=O)O` [L-allylglycine] the “Z Score” value (168 h, 3 µM) was −1.155, the Z score (168 h, 3 µM) was −1.155 and the Activity [5] was “no”.
For `N=c1ccn2c(n1)O[C@H]1[C@H](O)[C@@H](CO)O[C@H]12` [Ancitabine hydrochloride], the “Z Score” value [7] was −9.951, the Z score [2] was −9.951 and the Activity [6] was “yes”.
For `CN(C)c1ccc(O)c2c1C[C@H]1C[C@H]3[C@H](N(C)C)C(O)=C(C(N)=O)C(=O)[C@@]3(O)C(O)=C1C2=O` [Minocycline hydrochloride], the “Z Score” value [1] was 0.4419 and the Z score [2] was 0.442.
`COc1ccccc1N1CCN(CCCNc2c(C)c(=O)n(C)c(=O)n2C)CC1` [Urapidil, 5-Methyl-] was tested, and the “Z Score” value [11] was −0.7831, the Z score [4] was −0.783 and the Activity [5] was “no”.
With `CN(C)c1cc2c(Nc3ccc4c(cnn4Cc4ccccc4)c3)ncnc2cn1` [GW2974] the “Z Score” value was −0.5164, the Z score [2] was −0.516 and the Activity [3] was “no”.
In the case of `O=C(O)CCC/C=C\C[C@@H]1[C@@H](/C=C/[C@H](O)C2Cc3ccccc3C2)[C@@H](F)C[C@@H]1O` [AL-8810], the “Z Score” value is reported as −1.806, the Z score [4] is reported as −1.806 and the Activity [5] is reported as “no”.
In the case of `C[N+]1(C)CCC(OC(=O)C(c2ccccc2)c2ccccc2)CC1.[I-]` [4-DAMP methiodide], the “Z Score” value [1] is reported as 0.3311, the Z score [9] is reported as 0.331 and the Activity [3] is reported as “no”.
With `Cl.OC[C@H]1NC[C@H](O)[C@@H](O)[C@@H]1O` [1-Deoxynojirimycin hydrochloride] the “Z Score” value [1] was 1.242, the Z score [9] was 1.242 and the Activity [3] was “no”.
`C[N+](C)(C)CC(=O)O` [Betaine hydrochloride] was tested, and the “Z Score” value [7] was −2.668, the Z score [2] was −2.668 and the Activity [10] was “yes”.
In the case of `O=C(O)c1cccnc1C(=O)O` [Quinolinic acid], the “Z Score” value (168 h, 3 µM) is reported as −2.419, the Z score (168 h, 3 µM) is reported as −2.419 and the Activity [6] is reported as “yes”.
